Measurements as given in patent publication US9682988B2, “Solid salt form of α-6-mPEG6-O-hydroxycodone as opioid agonists and uses thereof” (Nektar Therapeutics, priority 2012, dated 2017).

Legend:
Format in all cases: physicochemical
Water vapor sorption = settings: phosphate salt
Method: Moisture sorption/desorption data were collected on a VTI SGA-1 00 Vapor Sorption Analyzer. Sorption and desorption data were collected over a range of 5% to 95% relative humidity (RH) at 10% RH intervals under a nitrogen purge. Samples were not dried prior to analysis. Equilibrium criteria used for analysis were less than 0.0100% weight change in 5 minutes, with a maximum equilibration time of 3 hours if the weight criterion was not met. Data were not corrected for the initial moisture content of the samples. NaCl and PVP were used as calibration standards.

[1] = Particle size distribution (Malvern Mastersizer); settings: ethyl acetate dispersant; phosphate salt
Method: (§1) 27.22 g of freebase alpha-6-mPEG6-O-hydroxycodone was added to a 250 mL jacketed flask. The flask was equipped with a nitrogen inlet, mechanical stirrer and temperature probe connected to a digital read-out. 163 mL of tBME (methyl tert-butyl ether):heptane (5:1 vol:vol) was added to make a homogeneous solution at 15° C. Aqueous phosphoric acid (3103 μL of 85+%) was added over 1 hr at 10 minutes intervals. During the first addition, the initially formed solids were long strings and agitation helped to transform fine solid in matter of seconds. Exothermic temperature spikes occurred; the range of these increases was 8-10° C. observed during the initial 5 added portions. During the 6th and 7th added portion the temperature spike was reduced substantially to increments of a Celsius degree. After 2 hours the slurry was filtered. The filtration rate was instantaneous with no solvent retention. The wet cake was washed with 90 mL tBME (2×45 mL) and set to dry at ambient temperature overnight inside a vacuum oven. The isolated 30.57 g of white solid (96.5% isolated yield) was filtered. The solid after delumping with spatula was free flowing. The % LOD of the wet cake was at 43.2%. HPLC purity was at 98.6%. Bulk density was 0.3276 g/mL, tap density was 0.3931 g/mL, and the Hausner ratio was 1.20. XRPD conformed to the salt prepared according to Example 3. FIG. 16 depicts various XRPD scans for the salt prepared according to Example 7 on a 30 g, 100 g, and 520 g scale and a salt prepared according to Example 3 on a 100 g scale. XRPD patterns were obtained using a Bruker D8 Advance equipped with a Cu Kα radiation source (1.54 Å), a 9-position sample holder and a LYNXEYE Super Speed Detector. Typically, the duration of each scan was 180 seconds and the 2θ range was 4 to 40°. Samples were placed on zero-background, silicon plate holders. DSC data were collected using a TA Instruments Q10 DSC. Typically, samples (˜2 mg) were placed in hermetic alodined aluminum sample pans and scanned from 30 to 350° C. at a rate of 10° C./min under a nitrogen purge of 50 mL/min. A Malvern Hydro 2000 SM (A) Mastersizer was used for particle size analysis data using a generic method. Ethyl acetate was used as the dispersant, with a pump speed of 2000 rpm, obstruction of 10-15%. The addition style included direct addition of the solid to the dispersant until desired obstruction is achieved. The number of measurements was a minimum of two. For PSD analysis, a sample was taken from the bulk of the solid. FIGS. 13, 14, and 15 are plots of the PSD analysis for the 30 g, 100 g, and 520 g lots respectively.

[2] = Bulk and tap density of the solid salt
Method: as §1

[3] = Description of the isolated solid (hygroscopicity); settings: after drying under vacuum at ambient temperature
Method: A solution of α-6-mPEG6-O-hydroxycodone was prepared in a mixture of methanol and tert-butyl methyl ether (2:1, 2 volumes) at 30° C. A solution of phosphoric acid (85% aqueous, 1.05 eq) was prepared in a mixture of methanol and tert-butyl methyl ether (2:1, 1.2 volumes) at 20° C. The solutions were combined, maintaining a temperature of 30-50° C., resulting in the formation of dissolved α-6-mPEG6-O-hydroxycodone phosphate. This salt solution was adjusted to 40° C., and gradually transferred over the course of 1-3 hours into a solution of heptanes and tert-butyl methyl ether (4:1, 14 volumes) maintained at 45° C. During the transfer, α-6-mPEG6-O-hydroxycodone phosphate precipitated from the combined streams. The resulting slurry was cooled to 20° C. and agitation was ceased, permitting the solids to settle. The supernate was decanted, and heptanes (6 volumes) were added to the solids. The solids were slurried for at least one hour at 30° C., after which the slurry was cooled to 20° C. Again agitation was ceased, the solids were allowed to settle, and the supernate was decanted. Fresh heptanes were added to the solids, which were again slurried for at least one hour at 30° C. The slurry was cooled to 20° C., filtered, and washed with fresh heptanes (2 volumes). […] The solid form prepared according to this Example has a melting point in the range of about 175-177° C. […]

[4] = listed as Alpha 6-mPEG6-O-Hydroxycodone Phosphate Salt

Row | SMILES | Water Vapor Sorption (gain between 0-50% RH) (Water vapor sorption) [%] | Particle Size Distribution DV[10] [1] | Particle Size Distribution DV[50] [1] | Particle Size Distribution DV[90] [1] | Bulk Density ([2]; phosphate salt) [g/mL] | Hausner ratio ([2]; phosphate salt) | Tap Density ([2]; phosphate salt) [g/mL] | nature of the isolated solid [3] | Bulk Density [2, 4] [g/mL] | Hausner ratio [2, 4] | Tap Density [2, 4] [g/mL]
1 | COCCOCCOCCOCCOCCOCCO[C@H]1CC[C@@]2(O)[C@H]3Cc4ccc(OC)c5c4[C@@]2(CCN3C)[C@H]1O5.O=P(O)(O)O [30 g Lot, α-6-mPEG6-O-hydroxycodone phosphate salt] | 4.2 | DV[10] = 7 μm | DV[50] = 47 μm | DV[90] = 92 μm | 0.33 | 1.18 | 0.39 | – | – | – | –
2 | COCCOCCOCCOCCOCCOCCO[C@H]1CC[C@@]2(O)[C@H]3Cc4ccc(OC)c5c4[C@@]2(CCN3C)[C@H]1O5.O=P(O)(O)O [100 g Lot, α-6-mPEG6-O-hydroxycodone phosphate salt] | 4.1 | DV[10] = 9 μm | DV[50] = 53 μm | DV[90] = 109 μm | 0.37 | 1.30 | 0.48 | – | – | – | –
3 | COCCOCCOCCOCCOCCOCCO[C@H]1CC[C@@]2(O)[C@H]3Cc4ccc(OC)c5c4[C@@]2(CCN3C)[C@H]1O5.O=P(O)(O)O [520 g Lot, α-6-mPEG6-O-hydroxycodone phosphate salt] | 4.2 | DV[10] = 7 μm | DV[50] = 47 μm | DV[90] = 93 μm | 0.39 | 1.25 | 0.49 | – | – | – | –
4 | COCCOCCOCCOCCOCCOCCO[C@H]1CC[C@@]2(O)[C@H]3Cc4ccc(OC)c5c4[C@@]2(CCN3C)[C@H]1O5.O=C(O)C(O)C(O)C(=O)O [α-6-mPEG6-O-hydroxycodone D-tartrate] | – | – | – | – | – | – | – | deliquescent white powder | – | – | –
5 | COCCOCCOCCOCCOCCOCCO[C@H]1CC[C@@]2(O)[C@H]3Cc4ccc(OC)c5c4[C@@]2(CCN3C)[C@H]1O5.O=P(O)(O)O [α-6-mPEG6-O-hydroxycodone phosphate] | – | – | – | – | – | – | – | slightly waxy, hygroscopic powder | 0.3276 | 1.20 | 0.3931
